Assay results as given in patent US3953449A, “2-(4-M-CF3 or -SCF3 phenylpiperazino)-ethyl benzoates” (priority 1973, dated 1976).
Read-outs that look alike come from different tables or passages of the source.

How the values were obtained:
[1] = system: pain induced in CDl mice by the intraperitoneal injection of acetic acid; experiment: Koster test: analgesic effect against pain induced by intraperitoneal injection of acetic acid, oral administration; type: in vivo; settings: Mus musculus, read-out: Analgesic activity, Koster test ED50 (50% effective dose)
Source text: The analgesic effect was investigated in accordance with two conventional experimental procedures.

[2] = Acute toxicity, 50% lethal dose (LD50), oral administration, mice; settings: mouse, in vivo, Swiss mice of the CDl strain, both sexes, calculated graphically
Procedure: The tests were carried out on Swiss mice of the CDl strain, of both sexes, and the 50% lethal doses (LD50) were calculated graphically.

[3] = oral administration, CDl mice, acetic acid i.p.

Question: Which ED50 [1, 3] does the source give for `Cc1c(N(C)C)c(=O)n(-c2ccccc2)n1C` [Amidopyrine, reference compound] here?
Answer: 40 mg/kg

Question: With `CC(=O)OCCN1CCN(c2cccc(C(F)(F)F)c2)CC1` [SLB 093, 2-(4-m-Trifluoromethylphenylpiperazino)-ethyl acetate] as the molecule, how does the LD50 [2] read?
Answer: 925 mg/kg

Question: And the ED50 [1, 3]?
Answer: 3.5 mg/kg

Question: Which LD50 [2] does the source give for `O=C(OCCN1CCN(c2cccc(C(F)(F)F)c2)CC1)c1ccccc1` [SLB 108, 2-(4-m-Trifluoromethylphenylpiperazino)-ethyl benzoate] here?
Answer: > 4000 mg/kg

Question: And the ED50 ([1]; po)?
Answer: 10 mg/kg

Question: With `COc1cc(C(=O)OCCN2CCN(c3cccc(C(F)(F)F)c3)CC2)cc(OC)c1OC` [SLB 169, 2-(4-m-Trifluoromethylphenylpiperazino)-ethyl 3,4,5-trimethoxybenzoate] as the molecule, how does the LD50 [2] read?
Answer: 2200 mg/kg

Question: What about the ED50 [1, 3] of the same molecule?
Answer: 15 mg/kg

Question: Which results are given for `CCCC(CCC)C(=O)OCCN1CCN(c2cccc(C(F)(F)F)c2)CC1` [SLB 198, 2-(4-m-Trifluoromethylphenyl-piperazino)-ethyl 2-n-propyl-pentanoate]?
Answer: LD50 [2]: 2200 mg/kg; ED50 [1, 3]: 4.3 mg/kg
